Source: ChEMBL document CHEMBL5247609, “Novel nitric oxide-releasing derivatives of pyranocarbazole as antitumor agents: Design, synthesis, biological evaluation, and nitric oxide release studies” (Eur J Med Chem, 2022)
The source made the active and inactive calls. The rule behind the calls is not given here.

What was measured:
[1] = system: MDA-MB-231; assay: Antiproliferative activity against human MDA-MB-231 cells assessed as reduction in cell viability after 96 hrs by MTT assay; format: functional, cell-based; conditions: MDA-MB-231, 96 h
[2] = system: HeLa; assay: Antiproliferative activity against human HeLa cells assessed as reduction in cell viability after 96 hrs by MTT assay; format: functional, cell-based
[3] = system: NCI-H460; assay: Antiproliferative activity against human H460 cells assessed as reduction in cell viability after 96 hrs by MTT assay; format: functional, cell-based; conditions: NCI-H460, 96 h
[4] = system: MDA-MB-231; assay: Antiproliferative activity against human MDA-MB-231 cells assessed as reduction in cell viability by measuring release of nitrite at 100 uM after 180 mins by Griess reagent analysis; format: functional; conditions: 3 h
[5] = system: MX1; assay: Induction of apoptosis in human MX1 cells assessed as early apoptotic cells measured at 5 uM after 48 hrs by FITC-Annexin-V and propidium iodide based flow cytometric analysis (reference value: 6.30%); format: functional
[6] = system: MDA-MB-231; assay: Induction of morphological changes in human MDA-MB-231 cells at 5 uM measured after 24 hrs by bright field inverted microscopic analysis; format: functional, cell-based
[7] = system: MX1; assay: Induction of apoptosis in human MX1 cells assessed as necrotic cells measured at 5 uM after 48 hrs by FITC-Annexin-V and propidium iodide based flow cytometric analysis (reference value: 0.055 %); format: functional
[8] = system: MX1; assay: Induction of morphological changes in human MX1 cells assessed as decrease in cell number at 5 uM measured after 24 hrs by bright field inverted microscopic analysis; format: functional, cell-based
[9] = system: MDA-MB-231; assay: Induction of morphological changes in human MDA-MB-231 cells assessed as decrease in cell size at 5 uM measured after 24 hrs by bright field inverted microscopic analysis; format: functional, cell-based
[10] = system: MDA-MB-231; assay: Induction of apoptosis in human MDA-MB-231 cells assessed as late apoptotic cells measured at 5 uM after 48 hrs by FITC-Annexin-V and propidium iodide based flow cytometric analysis (reference value: 2.68%); format: functional
[11] = system: MDA-MB-231; assay: Induction of apoptosis in human MDA-MB-231 cells assessed as early apoptotic cells measured at 5 uM after 48 hrs by FITC-Annexin-V and propidium iodide based flow cytometric analysis (reference value: 2.71%); format: functional
[12] = system: MX1; assay: Induction of apoptosis in human MX1 cells assessed as viable cells measured at 5 uM after 48 hrs by FITC-Annexin-V and propidium iodide based flow cytometric analysis (reference value: 88.4%); format: functional; conditions: read-out: Activity
[13] = system: MDA-MB-231; assay: Antiproliferative activity against human MDA-MB-231 cells assessed as decrease in number of colony formation at 5 uM measured after 14 days by crystal violet staining based analysis; format: functional, cell-based; conditions: time 14.0 day
[14] = system: MDA-MB-231; assay: Induction of morphological changes in human MDA-MB-231 cells assessed as decrease in cell number at 5 uM measured after 24 hrs by bright field inverted microscopic analysis; format: functional, cell-based
[15] = system: MDA-MB-231; assay: Induction of apoptosis in human MDA-MB-231 cells assessed as necrotic cells measured at 5 uM after 48 hrs by FITC-Annexin-V and propidium iodide based flow cytometric analysis (reference value: 0.253 %); format: functional
[16] = system: MX1; assay: Induction of morphological changes in human MX1 cells assessed as decrease in cell size at 5 uM measured after 24 hrs by bright field inverted microscopic analysis; format: functional, cell-based
[17] = system: MX1; assay: Induction of apoptosis in human MX1 cells assessed as late apoptotic cells measured at 5 uM after 48 hrs by FITC-Annexin-V and propidium iodide based flow cytometric analysis (reference value: 5.24%); format: functional
[18] = system: MX1; assay: Induction of morphological changes in human MX1 cells at 5 uM measured after 24 hrs by bright field inverted microscopic analysis; format: functional, cell-based
[19] = system: MDA-MB-231; assay: Induction of apoptosis in human MDA-MB-231 cells assessed as viable cells measured at 5 uM after 48 hrs by FITC-Annexin-V and propidium iodide based flow cytometric analysis (reference value: 94.4% ); format: functional; conditions: read-out: Activity

| IC50 [1] | IC50 [2] | IC50 [3] | SMILES | Nitrite release [4] | other results |
| --- | --- | --- | --- | --- | --- |
| 290 nM | 430 nM | 1360 nM | CC1(C)C=Cc2c(c(/C=C/C(=O)N3CCC(COc4no[n+]([O-])c4S(=O)(=O)c4ccccc4)CC3)cc3c2[nH]c2ccc(C(C)(C)C)cc23)O1 | 19.7 µM | – |
| 3510 nM | 1620 nM | 1390 nM | CC1(C)C=Cc2c(c(CN3CCC(Oc4no[n+]([O-])c4S(=O)(=O)c4ccccc4)CC3)cc3c2[nH]c2ccc(C(C)(C)C)cc23)O1 | 19.7 µM | – |
| 3750 nM | 3860 nM | 4490 nM | CC1(C)C=Cc2c(c(CN3CCC(COc4no[n+]([O-])c4S(=O)(=O)c4ccccc4)CC3)cc3c2[nH]c2ccc(C(C)(C)C)cc23)O1 | – | – |
| 210 nM | 240 nM | 3180 nM | CC1(C)C=Cc2c(c(/C=C/C(=O)N3CCC(CCOc4no[n+]([O-])c4S(=O)(=O)c4ccccc4)CC3)cc3c2[nH]c2ccc(C(C)(C)C)cc23)O1 | 19.7 µM | – |
| 3500 nM | 1830 nM | 1960 nM | CC1(C)C=Cc2c(c(CN3CCC(CCOc4no[n+]([O-])c4S(=O)(=O)c4ccccc4)CC3)cc3c2[nH]c2ccc(C(C)(C)C)cc23)O1 | 19.7 µM | – |

Continued, molecule first:

| SMILES | IC50 [1] | IC50 [2] | IC50 [3] | Nitrite release [4] | other results |
| --- | --- | --- | --- | --- | --- |
| CC(CNC(=O)/C=C/c1cc2c([nH]c3ccc(C(C)(C)C)cc32)c2c1OC(C)(C)C=C2)Oc1no[n+]([O-])c1S(=O)(=O)c1ccccc1 (stereo not given) | 200 nM | 210 nM | 990 nM | – | – |
| CC(=O)O[C@H]1C(=O)[C@@]2(C)[C@H]([C@H](OC(=O)c3ccccc3)[C@]3(O)C[C@H](OC(=O)[C@H](O)[C@@H](NC(=O)c4ccccc4)c4ccccc4)C(C)=C1C3(C)C)[C@]1(OC(C)=O)CO[C@@H]1C[C@@H]2O [PACLITAXEL] | 50 nM | 6 nM | – | 19.7 µM | – |
| CC1(C)C=Cc2c(c(CNCCOc3no[n+]([O-])c3S(=O)(=O)c3ccccc3)cc3c2[nH]c2ccc(C(C)(C)C)cc23)O1 | 4260 nM | 5340 nM | 5980 nM | 19.7 µM | – |
| CC1(C)C=Cc2c(c(/C=C/C(=O)NCCCOc3no[n+]([O-])c3S(=O)(=O)c3ccccc3)cc3c2[nH]c2ccc(C(C)(C)C)cc23)O1 | 180 nM | 230 nM | 1280 nM | 19.7 µM | – |
| CC1(C)C=Cc2c(c(/C=C/C(=O)N3CCC(Oc4no[n+]([O-])c4S(=O)(=O)c4ccccc4)CC3)cc3c2[nH]c2ccc(C(C)(C)C)cc23)O1 | 3520 nM | 1350 nM | 2680 nM | – | – |
| CN1CCN(Cc2cc3c([nH]c4ccc(C(C)(C)C)cc43)c3c2OC(C)(C)C=C3)CC1 | 3430 nM | 1290 nM | 3590 nM | – | Activity [5]: 53.8%; Activity [6]: Active; Activity [7]: 0.175%; Activity [8]: Active; Activity [9]: Active; Activity [10]: 7.79%; Activity [11]: 10.2%; viability at 5 µM [12]: 36%; Activity [13]: Active; Activity [14]: Active; Activity [15]: 0.745%; Activity [16]: Active; Activity [17]: 9.97%; Activity [18]: Active; viability at 5 µM [19]: 81.3% |
| NCCOc1no[n+]([O-])c1S(=O)(=O)c1ccccc1 | 12700 nM | 10500 nM | 16300 nM | – | – |
| CC1(C)C=Cc2c(c(/C=C/C(=O)N3CCCC3COc3no[n+]([O-])c3S(=O)(=O)c3ccccc3)cc3c2[nH]c2ccc(C(C)(C)C)cc23)O1 (stereo not given) | 380 nM | 240 nM | 6040 nM | 19.7 µM | – |
| CC1(C)C=Cc2c(c(CNCCCOc3no[n+]([O-])c3S(=O)(=O)c3ccccc3)cc3c2[nH]c2ccc(C(C)(C)C)cc23)O1 | 5850 nM | 7550 nM | 7490 nM | 19.7 µM | – |
